Experimental findings from ChEMBL document CHEMBL1128862, “Tricyclic cephems as inhibitors of human leukocyte elastase. thieno[3,4-c]cepham sulfones and pyrrolo[3,4-c]cepham sulfones” (Bioorg Med Chem Lett, 1995) are described below.

The target of data set [1] is T1, Neutrophil elastase (Homo sapiens) (UniProt P08246).
T1 sequence (whole entry): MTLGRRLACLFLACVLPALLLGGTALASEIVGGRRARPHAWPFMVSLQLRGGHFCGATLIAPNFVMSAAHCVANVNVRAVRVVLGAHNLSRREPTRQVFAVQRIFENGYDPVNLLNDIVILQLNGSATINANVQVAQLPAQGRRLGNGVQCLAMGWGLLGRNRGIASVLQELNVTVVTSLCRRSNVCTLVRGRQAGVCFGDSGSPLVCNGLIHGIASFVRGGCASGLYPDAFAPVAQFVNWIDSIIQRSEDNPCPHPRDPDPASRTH
Put plainly: Inhibitory activity against human leukocyte elastase (HLE) expressed as second order inhibition rate constant.

Data set [2] in a line: Hydrolytic stability at 37 degrees Celsius in 50 mM phosphate buffer (20 % v/v MeCN as solubilising vehicle) at pH 7.4. The format is physicochemical.
Data set [3] is described as follows: Hydrolytic stability at 37 degrees Centigrade in 50 mM phosphate buffer (2 % v/v MeCN as solubilising vehicle) at pH 7.4. It is filed as physicochemical.

In data set [1], `CO[C@H]1C(=O)N2c3c(cn(-c4ccc([N+](=O)[O-])cc4)c3-c3ccccc3)CS(=O)(=O)[C@H]12` yielded a k on of 11000 M⁻¹ s⁻¹. The half-life in data set [2] was > 125 days.
`CO[C@H]1C(=O)N2c3c(csc3C(C)(C)C)CS(=O)(=O)[C@H]12` showed a half-life in data set [3] of 9.17 days. In data set [1], the k on stood at 80 M⁻¹ s⁻¹.
For `CO[C@H]1C(=O)N2c3c(cn(C(=O)C(C)(C)C)c3-c3ccccc3)CS(=O)(=O)[C@H]12`, in that order: 33.3 days and 2100 M⁻¹ s⁻¹.
In data set [3], `CO[C@H]1C(=O)N2c3c(csc3-c3ccccc3)CS(=O)(=O)[C@H]12` had a half-life of 1.42 days. Moreover, the k on in data set [1] came out at 270 M⁻¹ s⁻¹.
For `CO[C@H]1C(=O)N2c3c(c[nH]c3C(C)(C)C)CS(=O)(=O)[C@H]12`, in that order: 21.2 days and 1300 M⁻¹ s⁻¹.
The corresponding values for `CO[C@H]1C(=O)N2c3c(c[nH]c3-c3ccccc3)CS(=O)(=O)[C@H]12` are 23.8 days and 2500 M⁻¹ s⁻¹.
